# Measurements from patent publication US11147805B2, “Cannabinoid receptor agonists and serine hydrolase enzyme inhibitor based anxiolytic therapeutic product” (Medipure Pharmaceuticals Inc., priority 2019, dated 2021).
# Key:
# Swiss albino mice [1] = test: Dose-response study: locomotor activity in the open field; type: in vivo; conditions: 7 days repeated, tested 8th day, tracked 60 min, vs vehicle
# Description: The effect of CBD, KML29, and JZL184 on locomotor activity in the open field experiment was evaluated using Swiss albino mice.
# A total of 88 male Swiss albino mice (˜30-45 g; 7-9 weeks old) were selected and body weights were recorded. Animals were administered respective treatments (n=8) as per the group allocation repeatedly for 7 days. On the day of testing (8th day), animals were brought to the laboratory 1 h prior to acclimatize to the laboratory conditions. Mice were habituated to the arenas for a period of 30 min. Respective treatments were intraperitoneally administered (vehicle (10 mL/kg) or Diazepam (1 mg/kg) or CBD (1, 10 and 100 mg/kg) or KML29 (3, 10 and 30 mg/kg) or JZL184 (3, 10 and 30 mg/kg)) immediately post habituation. After treatment animals were placed in the open field and distance traveled by mice was tracked for 60 min. Data obtained was analyzed by Student's ‘t’-test or Two-way repeated measures ANOVA followed by Bonferroni's posthoc tests by using the Graph pad prism software package (Version 7.0) and a p-value below 0.05 was considered as significant.
# healthy volunteers = conditions: chronic administration, even large acute doses of 700 mg/day; cited from earlier work
# human subjects = human subjects submitted to SPST; cited from earlier work
# Swiss albino mice [2] = test: Anxiolytic effects of formulation: locomotor activity in open field, combinations vs diazepam; type: in vivo; conditions: 1 mg/kg, i.p.; tested 8th day, tracked 60 min; vs vehicle
# Description: The effect of CBD, KML29, and JZL184 on locomotor activity in open field was evaluated using Swiss albino mice and compared with diazepam.
# A total of 48 male Swiss albino mice (˜30-45 g; 7-9 weeks old) were selected and body weights were recorded. Animals were brought to the laboratory 1 h prior to acclimatize to the laboratory conditions. The open field is a black colored arena of 51×51×51 cm enclosed by black plastic walls of same dimensions. Animals were given respective intraperitoneal treatments as per the group allocation (n=8) repeatedly for 7 days. On the day of testing (8th day), mice were habituated to the arenas for a period of 30 min. […] Data obtained was analyzed by Student's ‘t’-test or Two-way repeated measures ANOVA followed by Bonferroni's posthoc tests by using the GraphPad prism software package (Version 7.02) and p-value below 0.05 was considered as significant.
# Preparation of formulations: Diazepam was dissolved with sufficient volume of 5% pharmasolve and 95% of 30% w/v captisol to get the concentration of 0.10 mg/mL and was intended for intraperitoneal administration of 1 mg/kg dose at 10 mL/kg dose volume. CBD was dissolved in a calculated volume of DMSO to get the concentration of 20 mg/mL (Stock solution). […] KML29 was dissolved in a calculated volume of DMSO to get the concentration of 50 mg/mL (Stock solution). […]
compound,measurement,setting,value
"O=C(Oc1ccc([N+](=O)[O-])cc1)N1CCC(C(O)(c2ccc3c(c2)OCO3)c2ccc3c(c2)OCO3)CC1 [JZL184, 4-nitrophenyl-4-[bis(1,3-benzodioxol-5yl)(hydroxy)methyl]piperidine-1-carboxylate]",locomotion (distance traveled in open field),"Swiss albino mice [1]; 3, 10 and 30 mg/kg i.p.",decreased the locomotion in a dose-dependent manner but the effect did not reach statistical significance
"O=C(N1CCC(=C2c3ccc(Cl)cc3CCc3cccnc32)CC1)n1cncn1 [KML29, [4-(8-Chloro-5,6-dihydro-11H-benzo[5,6]cyclohepta[1,2-b]pyridin-11-ylidene)-1-piperidinyl](1H-1,2,4-triazol-1-yl)methanone]",locomotion (distance traveled in open field),"Swiss albino mice [1]; 30 mg/kg, i.p.",decreased the locomotion and attained significance
"C=C(C)[C@@H]1CCC(C)=C[C@H]1c1c(O)cc(CCCCC)cc1O [CBD, cannabidiol]",locomotion (distance traveled in open field),"Swiss albino mice [1]; 100 mg/kg, i.p.",significantly decreased the locomotion
same,toxicity or serious side effects,healthy volunteers,No signs of toxicity or serious side effects
same,anxiolytic effect,human subjects,anxiolytic effects
"CN1C(=O)CN=C(c2ccccc2)c2cc(Cl)ccc21 [Diazepam, diazepam]",locomotion (distance traveled in open field),"Swiss albino mice [1]; 1 mg/kg, i.p.",significantly decreased the locomotion
same,locomotion (distance traveled in open field),Swiss albino mice [2],significantly decreased the locomotion
